# Patent US9790203B2, “Inhibitor compounds of phosphodiesterase type 10A” (ABBVIE DEUTSCHLAND GMBH & CO. KG, priority 2012, dated 2017)
# Assays:
# rats [1] = settings: cited from earlier work
# rats [2] = settings: cited from earlier work; remark: listed apart in the source
# rats [3] = settings: cited from earlier work; remark: listed apart in the source
# [4] = Microsomal half-life / microsomal clearance, human liver microsomes; assay type: in vitro ADME; settings: 0.5 μM test substance, 0.25 mg microsomal protein/ml, pH 7.4, 37° C.
# Experimental: (§1) The metabolic stability of the compounds of the invention was determined in the following assay.
# (§2) The test substances were incubated in a concentration of 0.5 μM as follows:
# (§3) 0.5 μM test substance are preincubated together with liver microsomes from different species (from rat, human or other species) (0.25 mg of microsomal protein/ml) in 0.05 M potassium phosphate buffer of pH 7.4 in microtiter plates at 37° C. for 5 min. The reaction is started by adding NADPH (1 mg/mL). After 0, 5, 10, 15, 20 and 30 min, 50 μl aliquots are removed, and the reaction is immediately stopped and cooled with the same volume of acetonitrile. The samples are frozen until analyzed. The remaining concentration of undegraded test substance is determined by MSMS. The half-life (T1/2) is determined from the gradient of the signal of test substance/unit time plot, it being possible to calculate the half-life of the test substance, assuming first order kinetics, from the decrease in the concentration of the compound with time. The microsomal clearance (mCl) is calculated from mCl=ln 2/T1/2/(content of microsomal protein in mg/ml)×1000 [ml/min/mg] (modified from references: Di, The Society for Biomoleculur Screening, 2003, 453-462; Obach, DMD, 1999 vol 27. N 11, 1350-1359).
# [5] = Microsomal half-life / microsomal clearance, rat liver microsomes; assay type: in vitro ADME; settings: 0.5 μM test substance, 0.25 mg microsomal protein/ml, pH 7.4, 37° C.
# Experimental: as §1, §2, §3
# PDE10A = PDE10A (Homo sapiens (Human), UniProt Q9Y233); experiment: Measurement of PDE activity (HTRF cAMP kit, recombinant PDE); assay type: biochemical; settings: recombinant PDE10, 20 nM cyclic nucleotide substrate, 60 minutes at 29 C
# Experimental: The recombinant PDE proteins are used in in vitro enzymatic reaction for measurement of PDE activity. These recombinant proteins, including PDE10A (human, rat and mouse PDE10) and isoforms of PDEs 1, 3, 4, and 5, were purchased from commercial vendor BPS Bioscience. The enzymatic activity of PDEs was determined by cAMP measurement kit from CisBio (IBA) using HTRF technology.
# The PDE enzymatic reaction was carried out in assay buffer (20 mM Tris-HCl pH7.5, 10 mM MgCl2, 0.1% bovine serum albumin) containing enzyme and substrate. […] The substrate cyclic nucleotide (cAMP or cGMP) concentration used in the assay was 20 nM for PDE10, and 100 nM for other PDEs. The inhibitory effect of compound was determined by incubating various concentration of inhibitor in the enzymatic assay. […] Next, the compound at varying concentration was mixed with PDE enzyme. The reaction was initiated by addition of cyclic nucleotide substrate, and incubated for 60 minutes at 29 C. The reaction was stopped by addition of lysis buffer from assay kit. The cAMP-d2 and anti-cAMP cryptate in the lysis buffer detected the level of cAMP left from the PDE hydrolysis reaction. […] Thus, IC50 value of inhibitor can be obtained by plotting inhibitor concentration against PDE activity at that concentration.
# Chain of PDE10A (Q9Y233 whole entry, species assumed, canonical isoform): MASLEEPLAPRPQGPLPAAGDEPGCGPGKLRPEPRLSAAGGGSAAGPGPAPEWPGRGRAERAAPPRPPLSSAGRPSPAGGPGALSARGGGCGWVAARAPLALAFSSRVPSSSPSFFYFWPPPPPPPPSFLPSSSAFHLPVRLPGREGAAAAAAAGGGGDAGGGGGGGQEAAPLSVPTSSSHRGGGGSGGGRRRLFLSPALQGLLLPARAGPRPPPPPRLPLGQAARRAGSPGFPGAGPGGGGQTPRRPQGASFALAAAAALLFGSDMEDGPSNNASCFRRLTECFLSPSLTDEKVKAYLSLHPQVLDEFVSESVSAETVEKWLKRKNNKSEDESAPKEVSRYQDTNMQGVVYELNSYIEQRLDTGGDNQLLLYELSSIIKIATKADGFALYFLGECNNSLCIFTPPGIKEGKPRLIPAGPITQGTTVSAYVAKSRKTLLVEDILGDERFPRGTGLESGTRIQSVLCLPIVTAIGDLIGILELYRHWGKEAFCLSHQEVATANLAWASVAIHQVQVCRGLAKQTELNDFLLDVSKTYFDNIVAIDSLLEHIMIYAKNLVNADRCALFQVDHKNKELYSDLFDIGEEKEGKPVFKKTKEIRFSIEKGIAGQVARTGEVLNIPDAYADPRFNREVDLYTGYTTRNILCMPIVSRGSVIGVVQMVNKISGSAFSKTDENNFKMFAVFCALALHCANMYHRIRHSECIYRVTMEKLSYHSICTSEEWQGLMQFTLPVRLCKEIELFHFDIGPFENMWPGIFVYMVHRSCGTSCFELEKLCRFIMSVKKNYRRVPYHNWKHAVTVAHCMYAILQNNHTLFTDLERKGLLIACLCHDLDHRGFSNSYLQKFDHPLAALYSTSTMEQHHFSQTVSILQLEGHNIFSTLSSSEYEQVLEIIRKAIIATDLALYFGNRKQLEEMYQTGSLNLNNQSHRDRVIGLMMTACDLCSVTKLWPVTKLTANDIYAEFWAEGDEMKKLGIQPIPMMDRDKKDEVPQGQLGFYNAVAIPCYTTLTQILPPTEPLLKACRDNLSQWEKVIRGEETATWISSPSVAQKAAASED
Compound,catalepsy on its own (rats [1]; papaverine alone),cataleptic effect of the D2 receptor antagonist haloperidol (rats [1]; with haloperidol),reduction of amphetamine-induced hyperactivity (rats [2]),hyperactivity induced by PCP (rats [3]),Human mCl [4],Rat mCl [5],IC50 (PDE10A)
"COc1ccc(Cc2nccc3cc(OC)c(OC)cc23)cc1OC [Papaverine, papaverine]",did not cause catalepsy on its own,potentiated the cataleptic effect,insignificant,reduced hyperactivity,–,–,–
"Cc1cccc(C#Cc2ccc(-c3nn(C)cc3-c3cn[nH]c3)cc2)n1 [Example 24, 2-methyl-6-[2-[4-[1-methyl-4-(1H-pyrazol-4-yl)pyrazol-3-yl]phenyl]ethynyl]pyridine]",–,–,–,–,++ (<100 μl min^−1 mg^−1),++ (<100 μl min^−1 mg^−1),200 to 500 nM
"Cn1cc(-c2ccncc2)c(-c2ccc(C#Cc3ccccn3)cc2)n1 [Example 2, 2-((4-(1-methyl-4-(pyridin-4-yl)-1H-pyrazol-3-yl)phenyl)ethynyl)pyridine]",–,–,–,–,++ (<100 μl min^−1 mg^−1),++ (<100 μl min^−1 mg^−1),< 100 nM
"Cn1cc(-c2ccncc2)c(-c2ccc(C#Cc3ccc4ccccc4n3)cc2)n1 [Example 12, 2-((4-(1-methyl-4-(pyridin-4-yl)-1H-pyrazol-3-yl)phenyl)ethynyl)quinoline]",–,–,–,–,++ (<100 μl min^−1 mg^−1),++ (<100 μl min^−1 mg^−1),< 100 nM
"Cc1cccc(C#Cc2ccc(-c3c(-c4ccncc4)cnn3C)cc2)n1 [Example 26, 2-methyl-6-[2-[4-[2-methyl-4-(4-pyridyl)pyrazol-3-yl]phenyl]ethynyl]pyridine]",–,–,–,–,++ (<100 μl min^−1 mg^−1),++ (<100 μl min^−1 mg^−1),< 100 nM
"Cc1cccnc1C#Cc1ccc(-c2nn(C)cc2-c2ccncc2)cc1 [Example 6, 3-Methyl-2-((4-(1-methyl-4-(pyridin-4-yl)-1H-pyrazol-3-yl)phenyl)ethynyl)pyridine]",–,–,–,–,++ (<100 μl min^−1 mg^−1),++ (<100 μl min^−1 mg^−1),< 100 nM
